Data set [1] is described as follows: The drug is tested on Clostridium asparagiforme strain: DSM15981 for biotransformation. The drug concentrations were measured before and after a 12-h incubation by liquid-chromatography-coupled mass spectrometry (LC–MS). On the set-up: dose 2 uM, timepoint 0 vs 12 hours. As to conditions: enterocloster asparagiformis, 2 µM. In kind it is ADME.
The conditions of data set [2]: bacteroides thetaiotaomicron, 12 h, 2 µM.
Description: The drug is tested on Bacteroides thetaiotaomicron strain: VPI-5482 for biotransformation. The drug concentrations were measured before and after a 12-h incubation by liquid-chromatography-coupled mass spectrometry (LC–MS)
For data set [3] the following is noted: bacteroides eggerthii, 12 h, 2 µM.
Description: The drug is tested on Bacteroides eggerthii strain: DSM20697 for biotransformation. The drug concentrations were measured before and after a 12-h incubation by liquid-chromatography-coupled mass spectrometry (LC–MS)
A short description of data set [4]: The drug is tested on Dorea formicigenerans strain: ATCC27755 for biotransformation. The drug concentrations were measured before and after a 12-h incubation by liquid-chromatography-coupled mass spectrometry (LC–MS). The conditions noted are these: 2 µM.
The conditions of data set [5]: bacteroides thetaiotaomicron, 12 h, 2 µM. The source holds these as a separate data set.
Description: The drug is tested on Bacteroides thetaiotaomicron strain: 7330 for biotransformation. The drug concentrations were measured before and after a 12-h incubation by liquid-chromatography-coupled mass spectrometry (LC–MS)
A short description of data set [6]: The drug is tested on Eubacterium ventriosum strain: ATCC27560 for biotransformation. The drug concentrations were measured before and after a 12-h incubation by liquid-chromatography-coupled mass spectrometry (LC–MS). Format: ADME. On the set-up: dose 2 uM, timepoint 0 vs 12 hours. As to conditions: 2 µM.
For data set [7] the following is noted: roseburia intestinalis, 12 h, 2 µM.
Description: The drug is tested on Roseburia intestinalis strain: L1-82 for biotransformation. The drug concentrations were measured before and after a 12-h incubation by liquid-chromatography-coupled mass spectrometry (LC–MS)
Data set [8] in a line: The drug is tested on Blautia luti strain: DSM14534 for biotransformation. The drug concentrations were measured before and after a 12-h incubation by liquid-chromatography-coupled mass spectrometry (LC–MS). Format: ADME. On the set-up: dose 2 uM, timepoint 0 vs 12 hours. The conditions noted are these: 2 µM.
Data set [9] can be described thus: The drug is tested on Bacteroides cellulosilyticus strain: DSM14838 for biotransformation. The drug concentrations were measured before and after a 12-h incubation by liquid-chromatography-coupled mass spectrometry (LC–MS). The conditions noted are these: 2 µM.
Data set [10] can be described thus: The drug is tested on Escherichia coli strain: BW25113 for biotransformation. The drug concentrations were measured before and after a 12-h incubation by liquid-chromatography-coupled mass spectrometry (LC–MS). As to conditions: 2 µM.
The conditions of data set [11]: akkermansia muciniphila, 12 h, 2 µM.
Description: The drug is tested on Akkermansia muciniphila strain: ATCC BAA-835 for biotransformation. The drug concentrations were measured before and after a 12-h incubation by liquid-chromatography-coupled mass spectrometry (LC–MS)
Data set [12] in a line: The drug is tested on Collinsella intestinalis strain: DSM13280 for biotransformation. The drug concentrations were measured before and after a 12-h incubation by liquid-chromatography-coupled mass spectrometry (LC–MS). The conditions noted are these: 2 µM.
For data set [13] the following is noted: segatella copri, 12 h, 2 µM.
Description: The drug is tested on Prevotella copri strain: DSM18205 for biotransformation. The drug concentrations were measured before and after a 12-h incubation by liquid-chromatography-coupled mass spectrometry (LC–MS)
A short description of data set [14]: The drug is tested on Bacteroides fragilis strain: HMW610 for biotransformation. The drug concentrations were measured before and after a 12-h incubation by liquid-chromatography-coupled mass spectrometry (LC–MS). As to conditions: 2 µM.
For data set [15] the following is noted: victivallis vadensis, 12 h, 2 µM.
Description: The drug is tested on Victivallis vadensis strain: ATCC BAA-548 for biotransformation. The drug concentrations were measured before and after a 12-h incubation by liquid-chromatography-coupled mass spectrometry (LC–MS)
The nature of data set [16]: The drug is tested on Bacteroides sp. WH2 strain: WH2 for biotransformation. The drug concentrations were measured before and after a 12-h incubation by liquid-chromatography-coupled mass spectrometry (LC–MS). The conditions noted are these: bacteroides sp. wh2, 12 h, 2 µM.
Data set [17] can be described thus: The drug is tested on Subdoligranulum variabile strain: DSM15176 for biotransformation. The drug concentrations were measured before and after a 12-h incubation by liquid-chromatography-coupled mass spectrometry (LC–MS). As to conditions: 2 µM.
Data set [18] in a line: The drug is tested on Bifidobacterium breve strain: DSM20213 for biotransformation. The drug concentrations were measured before and after a 12-h incubation by liquid-chromatography-coupled mass spectrometry (LC–MS). The conditions noted are these: 2 µM.
Data set [19] is described as follows: The drug is tested on Blautia hansenii strain: DSM20583 for biotransformation. The drug concentrations were measured before and after a 12-h incubation by liquid-chromatography-coupled mass spectrometry (LC–MS). As to conditions: 2 µM.
Data set [20] is described as follows: The drug is tested on Bacteroides vulgatus strain: ATCC8482 for biotransformation. The drug concentrations were measured before and after a 12-h incubation by liquid-chromatography-coupled mass spectrometry (LC–MS). As to conditions: phocaeicola vulgatus, 2 µM.

For `CN1CCC(=C2c3ccccc3CCc3cccnc32)CC1.O=C(O)/C=C\C(=O)O.O=C(O)/C=C\C(=O)O` [AZATADINE MALEATE], the “Bacterial Biotransformation” value in data set [1], in data set [2], in data set [3], in data set [4], in data set [5] and in data set [6] was “Compound NOT metabolized” in each case. In addition, the “Bacterial Biotransformation” value in data set [7], in data set [8], in [9], in data set [10], in data set [11] and in data set [12] was “Compound NOT metabolized” throughout. In addition, the “Bacterial Biotransformation” value in [13], in data set [14], in [15], in [16], in data set [17] and in data set [18] was “Compound NOT metabolized” each time.

Consider `CC(C)(Oc1ccc(CCNC(=O)c2ccc(Cl)cc2)cc1)C(=O)O` [BEZAFIBRATE], for which the “Bacterial Biotransformation” value in data set [1] is recorded as “Compound NOT metabolized”; in [2] it was “Compound metabolized”; in data set [3], “Compound metabolized”; in data set [4], “Compound metabolized”; in data set [5], “Compound metabolized”; in data set [6], “Compound metabolized”. Moreover, the “Bacterial Biotransformation” value in data set [7], in data set [8], in data set [9], in [10], in [11] and in data set [12] was “Compound metabolized” each time. The “Bacterial Biotransformation” value in data set [13] is reported as “Compound metabolized”; in [19], “Compound NOT metabolized”; in data set [14] it was “Compound metabolized”; in [15], “Compound NOT metabolized”; in data set [16], “Compound metabolized”; in [18], “Compound metabolized”. Moreover, the “Bacterial Biotransformation” value in data set [20] was “Compound metabolized”.

Consider `CN(C)C(=O)Oc1cc(OC(=O)N(C)C)cc(C(O)CNC(C)(C)C)c1` (stereo unspecified) [BAMBUTEROL], for which the “Bacterial Biotransformation” value in [1], in data set [2], in data set [3], in data set [4], in data set [5] and in data set [6] was “Compound NOT metabolized” in each case. Besides, the “Bacterial Biotransformation” value in data set [7], in data set [8], in data set [10], in [11], in data set [12] and in data set [13] was “Compound NOT metabolized” in each case. In addition, the “Bacterial Biotransformation” value in data set [19], in data set [14], in [15], in data set [16], in data set [17] and in data set [18] was “Compound NOT metabolized” throughout. Also, in [20], the “Bacterial Biotransformation” value is reported as “Compound NOT metabolized”.
